From patent US5596002A, “Method of treating chloroquine-resistant malaria with aminoquinoline derivatives” (Hoffmann-La Roche Inc., priority 1993, dated 1997)
Converted amounts (≈) assume the structure as drawn. Read-outs that look alike come from different tables or passages of the source.

Columns and labels:
[1] = system: Plasmodium falciparum, chloroquine-resistant strain K1; assay: activity against P. falciparum in vitro, strain K1; assay type: cell-based; conditions: Plasmodium falciparum, read-out: IC50 (50% growth inhibition)
Outline: (§1)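 Asynchronous intraerythrocytic cultures in human A+ erythrocytes (0.7% parasitemia, 2.5% suspension) were exposed to serially diluted compound (6-7 steps) in RPMI 1640/HEPES/NaHCO3/10% human serum at 37° C, 3% O2, 4% CO2, for 48 h-72 h. Growth was measured by [G-^3 H]-hypoxanthin incorporation versus untreated controls; IC50 from logit regression.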

[2] = system: Plasmodium berghei (strain ANKA); assay: activity against Plasmodium berghei in vivo (infected mice); conditions: for ED50: read-out: ED50 (po)
Method: Test method for the determination of the activity against Plasmodium berghei in vivo
The preparations according to the present invention were tested on mice infected with malaria pathogens (Plasmodium berghei). Male albino mice (IBM:MORO(SPF), FUELLINSDORF) weighing about 25 g were used as the test animals. They were kept in climatized rooms at 21°-22° C. in groups of 5 animals per cage. They received ad libitum a diet feed with a low PABA content ("NAFAG FUTTER" No. 9009 PAB-45, PABA content 45 mg/kg) and drinking water. On the first day of the test (D0) the test animals were infected with Plasmodium berghei (strain ANKA). For this there was used heparinized blood of a donor mouse with about 30% parasitemia, which was diluted with physiological saline such that it contains 10^8 parasitized erythrocytes per ml. 0.2 ml of this suspension was injected intravenously (i.v.) into the mice to be treated and into the control mice. In untreated control animals the parasitemia normally reaches 30-40% on the third day after the infection (D+3) and the test animals die between days +5 and +7.
The substances to be tested were dissolved or suspended in distilled water or in a mixture of 7% Tween 80, 3% alcohol (96%) and water. Usually, 0.25 ml of this solution or suspension was administered once subcutaneously and perorally to groups of 5 test animals. Treatment was effected 24 hours after the infection. 10 control animals were treated in the same manner with solvent or suspension medium per test.
All substances were tested in a first test in a single dosage of 10 mg/kg. Only those substances which in this test (10 mg/kg) had shown a parasitaemia reduction of 90% were used for the titration.
48 hours after the treatment (D+3), blood smears were prepared from all animals using blood from tail veins and were stained with Giemsa. The average erythrocyte infection rate (parasitemia in %) in the control groups as well as in the groups which had been treated with the test compounds was determined by counting under a microscope. The difference in the average values of the infection rates of control group (100%) and treated groups was calculated and expressed as a percentage reduction (GI %). The ED50 or ED90 was determined mathematically by means of the JMP programme (nonlinear fit). The ED50 (ED90) in mg/kg is that dose which after single administration reduces the average erythrocyte infection rate by 50% (90%) in comparison to the control group.
Table 2 below contains data with respect to the activity measured against Plasmodium berghei in mice: GI % is the percentage reduction in the parasitemia after a single dose of 10 mg/kg of the test substance administered perorally (po) or subcutaneously (sc); ED50 and ED90 are the effective doses of the test substance administered perorally or subcutaneously.

[3] = system: Plasmodium falciparum, chloroquine-sensitive strain FCH5C2; assay: activity against P. falciparum in vitro, strain FCH5C2; assay type: cell-based; conditions: read-out: IC50 (50% growth inhibition)
Outline: as §1

[4] = system: Plasmodium falciparum, chloroquine-resistant strain RFCR3; assay: activity against P. falciparum in vitro, strain RFCR3; assay type: cell-based; conditions: read-out: IC50 (50% growth inhibition)
Outline: as §1

[5] = system: Plasmodium falciparum, chloroquine-sensitive strain HB3; assay: activity against P. falciparum in vitro, strain HB3; assay type: cell-based; conditions: read-out: IC50 (50% growth inhibition)
Outline: as §1

[6] = system: Plasmodium falciparum, chloroquine-resistant strain W2 Mef; assay: activity against P. falciparum in vitro, strain W2 Mef; assay type: cell-based; conditions: 48 h-72 h, read-out: IC50 (50% growth inhibition)
Outline: as §1

[7] = system: Plasmodium falciparum, chloroquine-sensitive strain NF54; assay: activity against P. falciparum in vitro, strain NF54; assay type: cell-based; conditions: Plasmodium falciparum, read-out: IC50 (50% growth inhibition)
Outline: as §1

[8] = system: Plasmodium falciparum, chloroquine-resistant strain W2; assay: activity against P. falciparum in vitro, strain W2; assay type: cell-based; conditions: read-out: IC50 (50% growth inhibition)
Outline: as §1

[9] = system: Plasmodium falciparum, chloroquine-sensitive strain RFMEF3; assay: activity against P. falciparum in vitro, strain RFMEF3; assay type: cell-based; conditions: read-out: IC50 (50% growth inhibition)
Outline: as §1

[10] = system: Plasmodium falciparum, chloroquine-sensitive strain Ro7 3; assay: activity against P. falciparum in vitro, strain Ro7 3; assay type: cell-based; conditions: read-out: IC50 (50% growth inhibition)
Outline: as §1

[11] = system: Plasmodium falciparum, chloroquine-resistant strain 7G8; assay: activity against P. falciparum in vitro, strain 7G8; assay type: cell-based; conditions: read-out: IC50 (50% growth inhibition)
Outline: as §1

[12] = system: Plasmodium falciparum, chloroquine-resistant strain Indo; assay: activity against P. falciparum in vitro, strain Indo; assay type: cell-based; conditions: read-out: IC50 (50% growth inhibition)
Outline: as §1

[13] = system: Plasmodium falciparum, chloroquine-resistant strain ItG2 F6; assay: activity against P. falciparum in vitro, strain ItG2 F6; assay type: cell-based; conditions: read-out: IC50 (50% growth inhibition)
Outline: as §1

[14] = chloroquine-resistant strain K1, 48 h-72 h
[15] = mice, single administration po, dose reducing average erythrocyte infection rate by 50%
[16] = mice, single dose 10 mg/kg po, 48 hours after treatment (D+3), read-out: GI % at 10 mg/kg (po): percentage reduction in the parasitemia
[17] = mice, single dose 10 mg/kg sc, 48 hours after treatment (D+3), read-out: GI % at 10 mg/kg (sc): percentage reduction in the parasitemia
[18] = chloroquine-sensitive strain FCH5C2, 48 h-72 h
[19] = chloroquine-resistant strain RFCR3, 48 h-72 h
[20] = chloroquine-sensitive strain HB3, 48 h-72 h
[21] = chloroquine-sensitive strain NF54, 48 h-72 h
[22] = chloroquine-resistant strain W2, 48 h-72 h
[23] = chloroquine-sensitive strain RFMEF3, 48 h-72 h
[24] = chloroquine-sensitive strain Ro7 3, 48 h-72 h
[25] = chloroquine-resistant strain 7G8, 48 h-72 h
[26] = chloroquine-resistant strain Indo, 48 h-72 h
[27] = chloroquine-resistant strain ItG2 F6, 48 h-72 h

Row | Compound | IC50 [1, 14] [ng/mL] | ED50 [2, 15] [mg/kg] | inhibition in vivo at 10 mg/kg [2, 16] [%] | inhibition in vivo at 10 mg/kg [2, 17] [%] | IC50 [3, 18] [ng/mL] | IC50 [4, 19] [ng/mL] | IC50 [5, 20] [ng/mL] | IC50 [6] [ng/mL] | IC50 [7, 21] [ng/mL] | IC50 [8, 22] [ng/mL] | IC50 [9, 23] [ng/mL] | IC50 [10, 24] [ng/mL] | IC50 [11, 25] [ng/mL] | IC50 [12, 26] [ng/mL] | IC50 [13, 27] [ng/mL] | further results
1 | Clc1ccc2c(N[C@@H]3CCC[C@H]3N3CCCC3)ccnc2c1 (relative stereo) [Example 11a, (1RS,2RS)-N1-(7-Chloro-quinolin-4-yl)-(2-pyrrolidin-1-yl-cyclopentyl)-amine] | 15 (≈ 0.0475 µM) | 4.5 | 99 | 99.6 | 7 (≈ 0.0222 µM) | 18 (≈ 0.057 µM) | 6 (≈ 0.019 µM) | 15 (≈ 0.0475 µM) | 7 (≈ 0.0222 µM) | 17 (≈ 0.0538 µM) | 7 (≈ 0.0222 µM) | 4 (≈ 0.0127 µM) | 14 (≈ 0.0443 µM) | 15 (≈ 0.0475 µM) | 8 (≈ 0.0253 µM) | –
2 | CCN(CC)CCCC(C)Nc1ccnc2cc(Cl)ccc12 (centres unmarked) [Chloroquine diphosphate, reference compound] | – | – | – | – | – | – | – | 79 | – | – | – | – | – | – | – | IC50 ([1]; K1, 48 h): 11 ng/mL; ED50 ([2]; Erythrocyte, po): 2.4 mg/kg; inhibition in vivo at 10 mg/kg ([2]; po, 48 h, read-out: GI % at 10 mg/kg (po): percentage reduction in the parasitemia): 99.9%; inhibition in vivo at 10 mg/kg ([2]; sc, 48 h, read-out: GI % at 10 mg/kg (sc): percentage reduction in the parasitemia): 99.9%; IC50 ([3]; 48 h): 12 ng/mL; IC50 ([4]; 48 h): 130 ng/mL; IC50 ([5]; HB3, 48 h): 11 ng/mL; IC50 ([7]; NF54, 48 h): 8 ng/mL; IC50 ([8]; W2, 48 h): 123 ng/mL; IC50 ([9]; 48 h): 14 ng/mL; IC50 ([10]; 48 h): 8 ng/mL; IC50 ([11]; 7G8, 48 h): 81 ng/mL; IC50 ([12]; 48 h): 52 ng/mL; IC50 ([13]; 48 h): 68 ng/mL
3 | CN1CCCC1CNc1ccnc2cc(Cl)ccc12 (centres unmarked) [Example 12a, (7-Chloro-quinolin-4-yl)-(1-methyl-pyrrolidin-2-yl-methyl)-amine] | 9 (≈ 0.0326 µM) | 4.8 | 91 | 91 | 8 (≈ 0.029 µM) | 11 (≈ 0.0399 µM) | 10 (≈ 0.0363 µM) | 6 (≈ 0.0218 µM) | 7 (≈ 0.0254 µM) | 9 (≈ 0.0326 µM) | 8 (≈ 0.029 µM) | 7 (≈ 0.0254 µM) | 8 (≈ 0.029 µM) | 11 (≈ 0.0399 µM) | 5 (≈ 0.0181 µM) | –
4 | Clc1ccc2c(NCCCN3CCCCC3)ccnc2c1 [Example 18, (7-Chloro-quinolin-4-yl)-(3-piperidin-1-yl-propyl)-amine] | 14 (≈ 0.0461 µM) | 6.9 | 83 | 96 | 4 (≈ 0.0132 µM) | 8 (≈ 0.0263 µM) | 8 (≈ 0.0263 µM) | 12 (≈ 0.0395 µM) | 4 (≈ 0.0132 µM) | 11 (≈ 0.0362 µM) | 8 (≈ 0.0263 µM) | 7 (≈ 0.023 µM) | 12 (≈ 0.0395 µM) | 7 (≈ 0.023 µM) | 7 (≈ 0.023 µM) | –
5 | Clc1ccc2c(NC3CCN(Cc4ccccc4)CC3)ccnc2c1 [Example 19, (1-Benzyl-piperidin-4-yl)-(7-chloro-quinolin-4-yl)-amine] | 9 (≈ 0.0256 µM) | 5.3 | 99 | 99.6 | 5 (≈ 0.0142 µM) | 10 (≈ 0.0284 µM) | 4 (≈ 0.0114 µM) | 11 (≈ 0.0313 µM) | 7 (≈ 0.0199 µM) | 10 (≈ 0.0284 µM) | 5 (≈ 0.0142 µM) | 3 (≈ 0.00853 µM) | 7 (≈ 0.0199 µM) | 7 (≈ 0.0199 µM) | 6 (≈ 0.0171 µM) | –
6 | CC1CC(C)(C)C(CNc2ccnc3cc(Cl)ccc23)C1N (centres unmarked) [Example 20, (5-Amino-2,2,4-trimethyl-cyclopentylmethyl)-(7-chloro-quinolin-4yl)-amine] | 10 (≈ 0.0315 µM) | 4.4 | 99.9 | 99.9 | 7 (≈ 0.022 µM) | 14 (≈ 0.044 µM) | 4 (≈ 0.0126 µM) | 14 (≈ 0.044 µM) | 3 (≈ 0.00944 µM) | 11 (≈ 0.0346 µM) | 4 (≈ 0.0126 µM) | 7 (≈ 0.022 µM) | 15 (≈ 0.0472 µM) | 8 (≈ 0.0252 µM) | 7 (≈ 0.022 µM) | –
7 | C=CCN(C)CCNc1ccnc2cc(Cl)ccc12 [Example 33, N1 -Allyl-N2-(7-chloro-quinolin-4-yl)-N1-methyl-ethane-1,2-diamine] | 14 (≈ 0.0508 µM) | 5.9 | 97 | 97 | 15 (≈ 0.0544 µM) | 18 (≈ 0.0653 µM) | 15 (≈ 0.0544 µM) | 15 (≈ 0.0544 µM) | 8 (≈ 0.029 µM) | 21 (≈ 0.0761 µM) | 16 (≈ 0.058 µM) | 10 (≈ 0.0363 µM) | 18 (≈ 0.0653 µM) | 14 (≈ 0.0508 µM) | 9 (≈ 0.0326 µM) | –
8 | CN(C)C(C)(C)CNc1ccnc2cc(Cl)ccc12 [Example 33b, N1-(7-Chloro-quinolin-4-yl)-2,N2,N2-trimethyl-propane-1,2-diamine] | 17 (≈ 0.0612 µM) | – | 99.9 | 99.9 | 11 (≈ 0.0396 µM) | 10 (≈ 0.036 µM) | 12 (≈ 0.0432 µM) | 18 (≈ 0.0648 µM) | 8 (≈ 0.0288 µM) | 9 (≈ 0.0324 µM) | 8 (≈ 0.0288 µM) | 4 (≈ 0.0144 µM) | 18 (≈ 0.0648 µM) | 9 (≈ 0.0324 µM) | 17 (≈ 0.0612 µM) | –
